{"source": "patent US20090062355A1", "about": "“Pharmaceutical Product” (Takeda Pharmaceutical Company Limited, priority 2006, published 2009)", "assay_type_in_all_cases": "cell-based", "key": {"[1]": {"tested_on": "mouse macrophage cell line RAW264.7 cells", "assay": "Suppressive action on production of mediator from LPS stimulated macrophage", "conditions": "LPS 10 ng/ml, overnight culture", "description": "A suppressive effect of test compound 1 (compound 72 of Reference Example B66) on the production of various mediators by lipopolysaccharide (LPS), which is a TLR4 agonist, using mouse macrophage cell line RAW264.7 cells was examined. The day before the experiment, the cells were suspended to 5×10^5 cells/mL in RPMI1640 medium supplemented with 10% inactivated fetal bovine serum, plated on a 96 well microplate at 0.2 mL/well and incubated at 37° C., 5% CO2/95% air overnight. The medium was changed to RPMI1640 medium supplemented with 1% inactivated fetal bovine serum, and test compound 1 and LPS (final concentration 10 ng/ml) was added. After overnight culture, cytokine, chemokine, prostaglandin E2 in the culture supernatant was quantified by ELISA, and nitrite ion (stable metabolite of NO) concentration was quantified by a fluorescence method using 2,3-diaminonaphthalene. Test compound 1 was dissolved in N,N-dimethylformamide to 10 mM, diluted with RPMI1640 medium supplemented with 1% inactivated fetal bovine serum to 0.1 mM, further diluted with the medium to 10-fold concentration of the final concentration and 1/10 thereof was added. Test compound 1 suppressed almost all the examined mediator production at an equivalent IC50."}, "[2]": {"tested_on": "Peripheral Blood Mononuclear Cells", "assay": "Influence on binding of LPS to PBMC (flow cytometry)", "conditions": "10 μM; 4° C. 30 min, then labeled LPS 50 ng/mL, 1% human serum, 37° C. 45 min; FIG. 2", "source_text": "FIG. 2 is a graph showing the effects of test compound 1, anti-CD14 antibody and anti-CCR5 antibody on the binding of LPS to PBMC. With an average of triplicate measurement values of LPS alone as 100%, % averages of triplicate measurement values of other groups are shown, mean±standard error (Experimental Example 6, results of 4 independent tests using PBMC obtained from the blood of different 4 subjects).\nPeripheral Blood Mononuclear Cells were Separated by a conventional method, and reacted with test compound 1 (compound 72 of Reference Example B66), anti-human CD14 monoclonal antibody MEM-18 and anti-human CCR5 monoclonal antibody 2D7 (negative control) at 4° C. for 30 min. The cells were reacted with fluorescence label LPS (E. coli O55:B5, Alexa Fluor® 488-labeled, 50 ng/mL) in the presence of 1% human serum at 37° C. for 45 min. The cells (10,000 cells) were washed and the binding of fluorescence label LPS was examined by flow cytometry."}, "[3]": {"tested_on": "mouse macrophage cell line RAW264.7 cells", "assay": "Suppressive action on production of cytokine from LPS stimulated macrophage (BioPlex cytokine assay)", "conditions": "100 nM + LPS 10 ng/mL, overnight", "description": "A suppressive effect of test compound 1 (compound 72 of Reference Example B66) on the production of various cytokines by lipopolysaccharide (LPS), which is a TLR4 agonist, using mouse macrophage cell line RAW264.7 cells was examined. The day before the experiment, the cells were suspended to 1×10^6 cells/mL in RPMI1640 medium supplemented with 10% inactivated fetal bovine serum, plated on a 96 well microplate at 0.1 mL/well and incubated at 37° C., 5% CO2/95% air overnight. The medium was changed, and test compound 1 (final concentration 100 nM) and LPS (final concentration 10 ng/mL) were added. After overnight culture, the content of cytokine in the culture supernatant was quantified by BioPlex cytokine assay (Bio-Rad). Test compound 1 was dissolved in dimethyl sulfoxide (DMSO) to 10 mM, diluted with RPMI1640 medium supplemented with 1% inactivated fetal bovine serum to 0.1 mM, further diluted with the medium to 10-fold concentration of the final concentration and 1/10 thereof was added."}}, "note": "Like-named read-outs stand apart in the source and are kept apart here."}
{"smiles": "CCOC(=O)C1=CCCC[C@H]1S(=O)(=O)Nc1ccc(F)cc1Cl", "note": "[test compound 1, ethyl (6R)-6-[(2-chloro-4-fluoroanilino)sulfonyl]-1-cyclohexene-1-carboxylate]", "values": [{"measurement": "IC50", "setting": "[1]; ELISA, read-out: IC50, IL-1α production", "result": 1.1, "unit": "nM"}, {"measurement": "IC50", "setting": "[1]; ELISA, read-out: IC50, IL-6 production", "result": 2, "unit": "nM"}, {"measurement": "IC50", "setting": "[1]; ELISA, read-out: IC50, IL-10 production", "result": 1.6, "unit": "nM"}, {"measurement": "IC50", "setting": "[1]; ELISA, read-out: IC50, MIP-2 production", "result": 7.1, "unit": "nM"}, {"measurement": "IC50", "setting": "[1]; ELISA, read-out: IC50, PGE2 production", "result": 4, "unit": "nM"}, {"measurement": "IC50", "setting": "[1]; ELISA, read-out: IC50, TNF-α production", "result": 3.1, "unit": "nM"}, {"measurement": "IC50", "setting": "[1]; fluorescence method with 2,3-diaminonaphthalene, read-out: IC50, NO production (nitrite ion)", "result": 1.8, "unit": "nM"}, {"measurement": "binding of fluorescence label LPS to PBMC", "setting": "[2]", "result": "completely failed to inhibit"}, {"measurement": "expression amount of cytokines: IL1beta", "setting": "[3]; control 0, LPS 97", "result": 2, "unit": "pg/mL"}, {"measurement": "expression amount of cytokines: IL12(p40)", "setting": "[3]; control 3, LPS 18", "result": 4, "unit": "pg/mL"}, {"measurement": "expression amount of cytokines: IL2", "setting": "[3]; control 3, LPS 20", "result": 8, "unit": "pg/mL"}, {"measurement": "expression amount of cytokines: IL3", "setting": "[3]; control 3, LPS 22", "result": 3, "unit": "pg/mL"}, {"measurement": "expression amount of cytokines: IFNgamma", "setting": "[3]; control 9, LPS 31", "result": 8, "unit": "pg/mL"}, {"measurement": "expression amount of cytokines: IL17", "setting": "[3]; control 9, LPS 50", "result": 13, "unit": "pg/mL"}, {"measurement": "expression amount of cytokines: KC", "setting": "[3]; control 10, LPS 79", "result": 22, "unit": "pg/mL"}, {"measurement": "expression amount of cytokines: IL12(p70)", "setting": "[3]; control 12, LPS 48", "result": 13, "unit": "pg/mL"}, {"measurement": "expression amount of cytokines: IL1alpha", "setting": "[3]; control 21, LPS 74", "result": 47, "unit": "pg/mL"}, {"measurement": "expression amount of cytokines: IL10", "setting": "[3]; control 25, LPS 80", "result": 20, "unit": "pg/mL"}, {"measurement": "expression amount of cytokines: RANTES", "setting": "[3]; control 31, LPS 1520", "result": 48, "unit": "pg/mL"}, {"measurement": "expression amount of cytokines: TNFalpha", "setting": "[3]; control 48, LPS 10483", "result": 125, "unit": "pg/mL"}, {"measurement": "expression amount of cytokines: GM-CSF", "setting": "[3]; control 53, LPS 135", "result": 85, "unit": "pg/mL"}, {"measurement": "expression amount of cytokines: IL6", "setting": "[3]; control 82, LPS 233", "result": 152, "unit": "pg/mL"}]}
